ChEMBL document CHEMBL5226341, “Discovery of a Potent FLT3 Inhibitor (LT-850-166) with the Capacity of Overcoming a Variety of FLT3 Mutations” (J Med Chem, 2021)
Calls of active or inactive are those of the source. The calls are words filed in the database; no cut-off is given here.

Experiments:
[1] = Toxicity in BALB/c mouse xenografted with human MV4-11 cells assessed as granulocyte count at 15 mg/kg, iv for 21 days; format: organism-based; settings: in vivo, 504 h, time 21 day
BaF3 [2] = assay: Antiproliferative activity against mouse BaF3 cells harboring FLT3-ITD-F691L mutant assessed as residual cell viability at 50 nM incubated for 72 hrs by CellTiterGlo luminescent assay; format: functional
[3] = Toxicity in BALB/c mouse xenografted with human MV4-11 cells assessed as change in body weight at 15 mg/kg, iv QD for 21 days; format: organism-based; settings: in vivo, 504 h, time 21 day
HCT-116 = assay: Antiproliferative activity against human HCT-116 cells assessed as reduction in cell viability measured after 72 hrs by CellTiterGlo luminescent assay; format: functional, cell-based; settings: HCT-116, 72 h
[4] = tested on: Receptor-type tyrosine-protein kinase FLT3 (Homo sapiens), P36888 [UNDEFINED MUTATION]; assay: Inhibition of FLT3-ITD-F691L mutant (unknown origin) transformed in mouse BaF3 cells assessed as inhibition of STAT5 phosphorylation at Tyr694 residue incubated for 4 hrs by western blot analysis; format: cell-based; settings: dose 0.1-100 nM
Sequence of Receptor-type tyrosine-protein kinase FLT3 (Homo sapiens), P36888 [UNDEFINED MUTATION] (P36888 whole entry, looked up, stated change not applied): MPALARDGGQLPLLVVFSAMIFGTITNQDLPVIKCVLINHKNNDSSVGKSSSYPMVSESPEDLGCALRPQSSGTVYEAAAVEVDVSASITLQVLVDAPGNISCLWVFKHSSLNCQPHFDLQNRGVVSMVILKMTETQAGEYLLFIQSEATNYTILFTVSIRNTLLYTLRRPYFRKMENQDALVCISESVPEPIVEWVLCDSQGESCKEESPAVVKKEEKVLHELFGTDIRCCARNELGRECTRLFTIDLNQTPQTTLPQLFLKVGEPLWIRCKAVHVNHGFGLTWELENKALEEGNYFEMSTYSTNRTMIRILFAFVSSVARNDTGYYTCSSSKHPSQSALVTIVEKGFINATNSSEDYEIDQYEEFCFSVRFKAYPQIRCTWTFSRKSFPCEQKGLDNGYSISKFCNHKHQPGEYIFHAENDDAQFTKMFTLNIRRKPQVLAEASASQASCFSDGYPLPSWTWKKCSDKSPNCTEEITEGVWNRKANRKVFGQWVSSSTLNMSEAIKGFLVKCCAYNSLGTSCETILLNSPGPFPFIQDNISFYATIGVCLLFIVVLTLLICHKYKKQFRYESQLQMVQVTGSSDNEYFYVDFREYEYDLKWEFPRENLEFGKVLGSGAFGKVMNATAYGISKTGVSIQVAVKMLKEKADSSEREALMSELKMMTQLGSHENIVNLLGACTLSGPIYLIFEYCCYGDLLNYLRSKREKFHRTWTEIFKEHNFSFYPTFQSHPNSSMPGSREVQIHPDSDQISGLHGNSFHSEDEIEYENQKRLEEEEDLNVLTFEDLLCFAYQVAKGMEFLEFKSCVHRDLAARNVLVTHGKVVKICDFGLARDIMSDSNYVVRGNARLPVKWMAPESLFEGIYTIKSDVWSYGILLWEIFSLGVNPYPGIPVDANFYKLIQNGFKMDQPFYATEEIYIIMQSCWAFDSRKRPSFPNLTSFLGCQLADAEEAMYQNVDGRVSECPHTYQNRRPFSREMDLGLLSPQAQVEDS

MV4-11 [5] = assay: Induction of apoptosis in human MV4-11 cells assessed as early apoptotic cells at 50 nM incubated for 24 hrs by AnnexinV-FITC/PI staining based flow cytometry (reference value: 3.09%); format: functional
[6] = Toxicity in ICR mouse assessed as behavioural changes at 100 mg/kg, iv administered as single dose and measured for 14 days; format: organism-based; settings: in vivo, 336 h, time 14 day
MKN-45 = assay: Antiproliferative activity against human MKN-45 cells assessed as reduction in cell viability measured after 72 hrs by CellTiterGlo luminescent assay; format: functional, cell-based; settings: MKN-45, 72 h
[7] = Toxicity in BALB/c mouse xenografted with human MV4-11 cells assessed as morphological changes in liver at 15 mg/kg, iv for 21 days by H and E staining based analysis; format: organism-based; settings: in vivo, 504 h, time 21 day
MV4-11 [8] = assay: Induction of apoptosis in human MV4-11 cells assessed as necrotic cells at 100 nM incubated for 24 hrs by AnnexinV-FITC/PI staining based flow cytometry (reference value: 0.45%); format: functional
[9] = Toxicity in BALB/c mouse xenografted with human MV4-11 cells assessed as lymphocyte count at 15 mg/kg, iv for 21 days; format: organism-based; settings: in vivo, 504 h, time 21 day
BaF3 [10] = assay: Antiproliferative activity against mouse BaF3 cells harboring FLT3-ITD mutant assessed as reduction in cell viability measured after 72 hrs by CellTiterGlo luminescent assay; format: functional, cell-based; settings: BaF3, 72 h
[11] = Half-life in Sprague-Dawley rat at 1 mg/kg, iv measured for 24 hrs by LC-MS/MS analysis; format: ADME, organism-based; settings: in vivo
[12] = target: Receptor-type tyrosine-protein kinase FLT3 (Homo sapiens) (UniProt P36888); assay: Inhibition of FLT3 in human MV4-11 cells assessed as inhibition of STAT5 phosphorylation at Tyr694 residue at 10 nM incubated for 4 hrs by western blot analysis; format: cell-based
Sequence of Receptor-type tyrosine-protein kinase FLT3 (Homo sapiens) (P36888 whole entry): as the sequence (P36888 whole entry, looked up, stated change not applied) above

MV4-11 [13] = assay: Induction of apoptosis in human MV4-11 cells assessed as early apoptotic cells at 100 nM incubated for 24 hrs by AnnexinV-FITC/PI staining based flow cytometry (reference value: 3.09%); format: functional
[14] = Cmax in Sprague-Dawley rat at 10 mg/kg, po measured for 24 hrs by LC-MS/MS analysis; format: ADME, organism-based; parameters: time 24 hrs, dose 10 mg/kg, route po; settings: in vivo
MV4-11 [15] = assay: Antitumor activity against human MV4-11 cells xenografted in BALB/c mouse assessed as inhibition rate of tumor weight at 15 mg/kg, iv BID for 21 days by vernier caliper analysis; format: functional; settings: MV4-11, 504 h, time 21 day
U-937 = assay: Antiproliferative activity against human U-937 cells assessed as reduction in cell viability measured after 72 hrs by CellTiterGlo luminescent assay; format: functional, cell-based; settings: U-937, 72 h
[16] = Toxicity in BALB/c mouse xenografted with human MV4-11 cells assessed as morphological changes in spleen at 15 mg/kg, iv for 21 days by H and E staining based analysis; format: organism-based; settings: in vivo, 504 h, time 21 day
[17] = Volume of distribution at steady state in Sprague-Dawley rat at 1 mg/kg, iv measured for 24 hrs by LC-MS/MS analysis; format: ADME, organism-based; settings: in vivo, read-out: Vdss
[18] = Toxicity in BALB/c mouse xenografted with human MV4-11 cells assessed as morphological changes in lung at 15 mg/kg, iv for 21 days by H and E staining based analysis; format: organism-based; settings: in vivo, 504 h, time 21 day
[19] = AUC (0 to t) in Sprague-Dawley rat at 10 mg/kg, po measured for 24 hrs by LC-MS/MS analysis; format: ADME, organism-based; parameters: time 24 hrs, dose 10 mg/kg, route po; settings: in vivo
MV4-11 [20] = assay: Antitumor activity against human MV4-11 cells xenografted in BALB/c mouse assessed as tumor growth inhibition at 15 mg/kg, iv BID for 21 days by vernier caliper analysis; format: functional; settings: MV4-11, 504 h, time 21 day, read-out: TGI
MV4-11 [21] = assay: Induction of apoptosis in human MV4-11 cells assessed as necrotic cells at 50 nM incubated for 24 hrs by AnnexinV-FITC/PI staining based flow cytometry (reference value: 0.45%); format: functional
MOLM-13 = assay: Antiproliferative activity against human MOLM-13 cells assessed as reduction in cell viability measured after 72 hrs by CellTiterGlo luminescent assay; format: functional, cell-based; settings: MOLM-13, 72 h
[22] = target: Receptor-type tyrosine-protein kinase FLT3 (Homo sapiens) (UniProt P36888); assay: Inhibition of FLT3 in human MV4-11 cells assessed as inhibition of STAT5 phosphorylation at Tyr694 residue incubated for 4 hrs by western blot analysis; format: cell-based; settings: dose 0.1-100 nM
MV4-11 [23] = assay: Induction of apoptosis in human MV4-11 cells assessed as late apoptotic cells at 10 nM incubated for 24 hrs by AnnexinV-FITC/PI staining based flow cytometry (reference value: 4.2%); format: functional
HCD-57 = assay: Induction of apoptosis in mouse HCD-57 cells harboring FLT3-D835Y mutant at 100 nM incubated for 24 hrs by AnnexinV-FITC/PI staining based flow cytometry; format: functional, cell-based
[24] = tested on: Receptor-type tyrosine-protein kinase FLT3 (Homo sapiens), P36888 [UNDEFINED MUTATION]; format: cell-based; settings: BaF3, dose 0.1-100 nM, time 4.0 hrs
[25] = Toxicity in BALB/c mouse xenografted with human MV4-11 cells assessed as platelet count at 15 mg/kg, iv for 21 days; format: organism-based; settings: in vivo, 504 h, time 21 day
[26] = tested on: Receptor-type tyrosine-protein kinase FLT3 (Homo sapiens), P36888 [UNDEFINED MUTATION]; assay: Inhibition of FLT3-ITD-F691L mutant (unknown origin) transformed in mouse BaF3 cells assessed as inhibition of FLT3 phosphorylation at Tyr589/591 residue incubated for 4 hrs by western blot analysis; format: cell-based; settings: dose 0.1-100 nM
[27] = tested on: Receptor-type tyrosine-protein kinase FLT3 (Homo sapiens), P36888 [UNDEFINED MUTATION]; format: cell-based; settings: BaF3, dose 0.1-100 nM, time 4.0 hrs; remark: listed apart in the source
MV4-11 [28] = assay: Induction of apoptosis in human MV4-11 cells assessed as viable cells at 100 nM incubated for 24 hrs by AnnexinV-FITC/PI staining based flow cytometry (reference value: 92.3%); format: functional; settings: read-out: Activity
[29] = Toxicity in BALB/c mouse xenografted with human MV4-11 cells assessed as white blood cell count at 15 mg/kg, iv for 21 days; format: organism-based; settings: in vivo, 504 h, time 21 day
[30] = Oral bioavailability in Sprague-Dawley rat at 10 mg/kg measured for 24 hrs by LC-MS/MS analysis; format: ADME, organism-based; settings: in vivo
[31] = Toxicity in BALB/c mouse xenografted with human MV4-11 cells assessed as change in body weight at 15 mg/kg, iv BID for 21 days; format: organism-based; settings: in vivo, 504 h, time 21 day
BaF3 [32] = format: functional, cell-based; settings: Mus musculus, BaF3, 72 h

CCN1CCN(c2ccc(C(=O)Nc3cc(-c4ccc5ncn(Cc6c(Cl)cccc6Cl)c5c4)[nH]n3)cc2)CC1
Activity [1]: Non-Toxic | Activity (BaF3 [2]): 2.54% | Activity [3]: Non-Toxic | IC50 (HCT-116): > 10000 nM | inhibition [4]: Dose-Dependent Effect | Activity (MV4-11 [5]): 11.3% | Activity [6]: Non-Toxic | IC50 (MKN-45): 4030 nM | Activity [7]: Non-Toxic | Activity (MV4-11 [8]): 0.61% | Activity [9]: Non-Toxic | IC50 (BaF3 [10]): 7.6 nM | half-life [11]: 2.25 h | inhibition [12]: 100% | Activity (MV4-11 [13]): 15.2% | Cmax [14]: 9.31 ng/mL | inhibition in vivo at 15 mg/kg (MV4-11 [15]): 85.2% | IC50 (U-937): > 2000 nM | Activity [16]: Non-Toxic | Vd [17]: 6.27 L/kg | Activity [18]: Non-Toxic | AUC(0-t) at 24 h [19]: 50.9 ng·h/mL | inhibition in vivo at 15 mg/kg (MV4-11 [20]): 108% | Activity (MV4-11 [21]): 0.87% | IC50 (MOLM-13): 9.85 nM | inhibition [22]: Dose-Dependent Effect | Activity (MV4-11 [23]): 20.5% | Activity (HCD-57): Active | inhibition [24]: Dose-Dependent Effect | Activity [25]: Non-Toxic | inhibition [26]: Dose-Dependent Effect | inhibition [27]: Dose-Dependent Effect | viability at 0.1 µM (MV4-11 [28]): 59.7% | Activity [29]: Non-Toxic | bioavailability [30]: 1.3% | Activity [31]: Non-Toxic | IC50 (BaF3 [32]): < 1.5 nM
